The source of these data is patent US9249102B2 (priority 2012, dated 2016).

Data set [1] has as its system microfilaria of Dirofilaria immitis. The experiment in a line: Method F: microfilaria of Dirofilaria immitis, survival at 24 hours. The note with it: survival of microfilaria at 24 hours.
A short description of data set [2]: Method G: permeability in the Caco-2/TC7 in vitro model. The note with it: human, Caco-2, pH 6.5.
In data set [3] the test system is Haemonchus contortus. As to the kind of experiment: Method A: Haemonchus contortus L1 larvae, microtitre plate screen. The note with it: 96 h, read-out: motility inhibition.
For the next data set, the system named is Cooperia oncophora. The experiment in a line: Method C: Cooperia oncophora L1 larvae in vitro. Conditions: 96 h, read-out: inhibition of motility.
In data set [4] the test system is Haemonchus contortus. The experiment in a line: Method D: Haemonchus contortus in vivo in Mongolian jirds. Conditions: po, 72 h, read-out: reduction in nematode infestation. On the set-up: species or system Mongolian jirds (Meriones unguiculatus).
The test system of data set [5] is anthelmintic-resistant isolate of Haemonchus contortus. The experiment in a line: Method B: anthelmintic-resistant (benzimidazole-resistant) isolate of Haemonchus contortus, conditions of method A. The note with it: H. contortus isolate functionally resistant against benzimidazoles.

SMILES strings stand for the structures.

`CN(c1ccc([N+](=O)[O-])c(C(F)(F)F)c1)[C@H]1CC[C@H](OCC(=O)N2CCN(CC3Cc4cc(F)ccc4O3)CC2)CC1` (some centres unmarked) [Compound 261, 1-[4-(5-fluoro-2,3-dihydro-benzofuran-2-ylmethyl)-piperazin-1-yl]-2-{4-[methyl-(4-nitro-3-trifluoromethyl-phenyl)-amino]-cyclohexyloxy}-ethanone] gave a concentration for a half-maximal effect (EC50) in data set [1] of less than 0.1 µg/mL. In data set [2], this molecule registered a Papp A→B at 20 μM of 8.2 ×10⁻⁶ cm/s. Also, the inhibition at 5 µg/mL in the data set on Haemonchus contortus [3] and with Cooperia oncophora was no less than 90% throughout. The inhibition in vivo at 30 mg/kg with Haemonchus contortus [4] is greater than 90%.

The molecule `O=C(CO[C@H]1CC[C@H](Nc2ccc([N+](=O)[O-])c(C(F)(F)F)c2)CC1)N1CCN(Cc2nc3cc(F)ccc3s2)CC1` [Compound 235, 1-(4-((5-fluorobenzo[d]thiazol-2-yl)methyl)piperazin-1-yl)-2-(-4-(4-nitro-3-(trifluoromethyl)phenylamino)cyclohexyloxy)ethanone] yielded an EC50 in data set [1] of less than 1 µg/mL. This molecule yielded an apparent permeability from apical to basolateral (Papp A→B) at 20 μM in data set [2] of 13.8 ×10⁻⁶ cm/s. The inhibition at 5 µg/mL in the data set on Haemonchus contortus [3] and in the data set on Cooperia oncophora was no less than 90% in each case. Also, in the data set on Haemonchus contortus [4], the inhibition in vivo at 30 mg/kg fell in the range of 70 to 90%.

Turning to `c1ccc2[nH]c(-c3cscn3)nc2c1` [thiabendazole], in data set [5], the “fold resistance of the isolate” value is 127 fold.
